This assay addresses nuclear receptor 4A1 (NR4A1) (Homo sapiens, UniProt P22736). The assay is described as follows: tryptophan fluorescence quenching with NR4A1 LBD ([…]). Format: binding.

The structures appear in SMILES notation.

Sequence of nuclear receptor 4A1 (NR4A1) (P22736 351-598 limits assumed): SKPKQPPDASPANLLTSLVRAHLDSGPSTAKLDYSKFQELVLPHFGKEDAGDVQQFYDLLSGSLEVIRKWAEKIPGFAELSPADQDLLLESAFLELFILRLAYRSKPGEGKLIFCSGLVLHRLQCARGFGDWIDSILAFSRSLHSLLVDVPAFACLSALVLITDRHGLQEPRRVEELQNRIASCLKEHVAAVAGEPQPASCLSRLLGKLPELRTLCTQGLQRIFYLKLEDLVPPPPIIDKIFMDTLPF

On to `COc1ccc2cc1Oc1ccc(cc1)C[C@H]1c3cc(c(OC)cc3CCN1C)Oc1c(OC)c(OC)cc3c1[C@H](C2)N(C)CC3` [TTD, tetrandrine], for which the Kd is 10.6 µM.
